Experimental data published in US9938299B2, “Glycosidase inhibitors and uses thereof” (MERCK SHARP & DOHME CORP., priority 2012, dated 2018).
pKi: −log10 of the molar value. Where two headings read alike, the source gives them in different places.

Biological target: T1, human O-GlcNAcase (Homo sapiens, UniProt O60502)
T1 sequence (O60502 1-916): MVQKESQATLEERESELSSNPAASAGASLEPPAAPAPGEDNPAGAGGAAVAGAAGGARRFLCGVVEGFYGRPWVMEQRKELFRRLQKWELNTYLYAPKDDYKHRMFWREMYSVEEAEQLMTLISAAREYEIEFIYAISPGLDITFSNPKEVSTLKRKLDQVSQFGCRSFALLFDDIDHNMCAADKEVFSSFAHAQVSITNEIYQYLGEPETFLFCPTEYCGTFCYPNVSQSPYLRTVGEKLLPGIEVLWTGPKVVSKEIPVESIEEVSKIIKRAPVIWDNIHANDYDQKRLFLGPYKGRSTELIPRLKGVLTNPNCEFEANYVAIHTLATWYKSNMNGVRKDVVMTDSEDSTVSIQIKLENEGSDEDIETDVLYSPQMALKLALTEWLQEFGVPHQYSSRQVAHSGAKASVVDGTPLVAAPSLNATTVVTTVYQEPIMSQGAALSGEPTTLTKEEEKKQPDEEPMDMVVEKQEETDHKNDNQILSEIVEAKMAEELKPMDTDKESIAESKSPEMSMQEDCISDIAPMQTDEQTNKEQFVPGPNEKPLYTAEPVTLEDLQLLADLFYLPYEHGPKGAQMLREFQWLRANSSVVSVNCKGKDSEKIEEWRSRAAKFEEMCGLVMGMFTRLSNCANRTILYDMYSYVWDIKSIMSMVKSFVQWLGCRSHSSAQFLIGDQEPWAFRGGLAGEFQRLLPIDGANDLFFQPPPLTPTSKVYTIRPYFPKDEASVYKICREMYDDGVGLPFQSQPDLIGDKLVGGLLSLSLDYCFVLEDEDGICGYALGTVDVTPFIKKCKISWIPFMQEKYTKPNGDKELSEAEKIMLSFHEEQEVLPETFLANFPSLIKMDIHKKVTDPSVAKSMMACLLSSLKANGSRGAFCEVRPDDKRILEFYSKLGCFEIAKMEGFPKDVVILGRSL
Assay: Determination of KI values for inhibition of O-GlcNAcase activity (fluorogenic 4-methylumbelliferyl GlcNAc substrate)
Assay type: biochemical
Experimental: Assay for Determination of […] for Inhibition of O-GlcNAcase Activity
Experimental procedure for kinetic analyses: Enzymatic reactions were carried out in a reaction containing 50 mM NaH2PO4, 100 mM NaCl and 0.1% BSA (pH 7.0) using 2 mM 4-Methylumbelliferyl N-acetyl-β-D-glucosaminide dihydrate (Sigma M2133) dissolved in ddH2O, as a substrate. The amount of purified human O-GlcNAcase enzyme used in the reaction was 0.7 nM. Test compound of varying concentrations was added to the enzyme prior to initiation of the reaction. The reaction was performed at room temperature in a 96-well plate and was initiated with the addition of substrate. […] The slope of product production was determined for each concentration of compound tested and plotted, using standard curve fitting algorithms for sigmoidal dose response curves. The values for a four parameter logistic curve fit of the data were determined.

[1] = purified human O-GlcNAcase 0.7 nM, 2 mM substrate, pH 7.0, room temperature, Cheng-Prusoff, read-out: Ki

pKi [1] | SMILES | pKi
7.82 | CN(C)C1=N[C@@H]2[C@@H](O)[C@H](O)[C@@H]([C@@H](O)CCc3ccccc3)O[C@@H]2S1 [Example 24, (3aR,5R,6S,7R,7aR)-2-(dimethylamino)-5-((S)-1-hydroxy-3-phenylpropyl)-5,6,7,7a-tetrahydro-3aH-pyrano[3,2-d]thiazole-6,7-diol] | 
6.47 | CN(C)C1=N[C@@H]2[C@@H](O)[C@H](O)[C@@H]([C@](O)(Cc3ccccc3)C(F)(F)F)O[C@@H]2S1 [Example 25, (3aR,5S,6S,7R,7aR)-2-(dimethylamino)-5-((R)-1,1,1-trifluoro-2-hydroxy-3-phenylpropan-2-yl)-5,6,7,7a-tetrahydro-3aH-pyrano[3,2-d]thiazole-6,7-diol] | 
7.18 | CN(C)C1=N[C@@H]2[C@@H](O)[C@H](O)[C@@H]([C@@](O)(Cc3ccccc3)C(F)(F)F)O[C@@H]2S1 [Example 26, (3aR,5S,6S,7R,7aR)-2-(dimethylamino)-5-(1,1,1-trifluoro-2-hydroxy-3-phenylpropan-2-yl)-5,6,7,7a-tetrahydro-3aH-pyrano[3,2-d]thiazole-6,7-diol] | 
6.85 | COc1ccc(CC[C@](O)([C@H]2O[C@@H]3SC(N(C)C)=N[C@@H]3[C@@H](O)[C@@H]2O)C(F)(F)F)cc1 [Example 30, (3aR,5S,6S,7R,7aR)-2-(dimethylamino)-5-(1,1,1-trifluoro-2-hydroxy-4-(4-methoxyphenyl)butan-2-yl)-5,6,7,7a-tetrahydro-3aH-pyrano[3,2-d]thiazole-6,7-diol] | 
8.97 | CNC1=N[C@@H]2[C@@H](O)[C@H](O)[C@@H](CC#N)O[C@@H]2S1 [Example 31, 2-((3aR,5R,6S,7R,7aR)-6,7-dihydroxy-2-(methylamino)-5,6,7,7a-tetrahydro-3aH-pyrano[3,2-d]thiazol-5-yl)acetonitrile] | 
6.89 | C=CCNC1=N[C@@H]2[C@@H](O)[C@H](O)[C@@H](CC#N)O[C@@H]2S1 [Example 32, 2-((3aR,5R,6S,7R,7aR)-2-(allylamino)-6,7-dihydroxy-5,6,7,7a-tetrahydro-3aH-pyrano[3,2-d]thiazol-5-yl)acetonitrile] | 
6.51 | CN(C)C(=O)CC[C@H]1O[C@@H]2SC(N(C)C)=N[C@@H]2[C@@H](O)[C@@H]1O [Example 33, 3-((3aR,5R,6S,7R,7aR)-2-(dimethylamino)-6,7-dihydroxy-5,6,7,7a-tetrahydro-3aH-pyrano[3,2-d]thiazol-5-yl)-N,N-dimethylpropanamide] | 
6.07 | CNC(=O)[C@H]1O[C@@H]2SC(NC)=N[C@@H]2[C@@H](O)[C@@H]1O [Example 35, (3aR,5 S,6S,7R,7aR)-6,7-dihydroxy-N-methyl-2-(methylamino)-5,6,7,7a-tetrahydro-3aH-pyrano[3,2-d]thiazole-5-carboxamide] | 
8.26 | CNC1=N[C@@H]2[C@@H](O)[C@H](O)[C@@H](C(=O)O)O[C@@H]2S1 [Example 36, (3aR,5S,6S,7R,7aR)-6,7-dihydroxy-2-(methylamino)-5,6,7,7a-tetrahydro-3aH-pyrano[3,2-d]thiazole-5-carboxylic acid] | 
7.17 | CNC1=N[C@@H]2[C@@H](O)[C@H](O)[C@@H](C(=O)OC)O[C@@H]2S1 [Example 37, (3aR,5S,6S,7R,7aR)-methyl 6,7-dihydroxy-2-(methylamino)-5,6,7,7a-tetrahydro-3aH-pyrano[3,2-d]-thiazole-5-carboxylate] | 
 | CNC1=N[C@@H]2[C@@H](O)[C@H](O)C(C(C)=O)O[C@@H]2S1 (stereo partly drawn) [Example 38, 1-((3aR,6S,7R,7aR)-6,7-dihydroxy-2-(methylamino)-5,6,7,7a-tetrahydro-3aH-pyrano[3,2-d]thiazol-5-yl)ethanone] | 7.10
10.12 | CNC1=N[C@@H]2[C@@H](O)[C@H](O)[C@@H](CCl)O[C@@H]2S1 [Example 39, (3aR,5 S,6S,7R,7aR)-5-(chloromethyl)-2-(methylamino)-5,6,7,7a-tetrahydro-3aH-pyrano[3,2-d]thiazole-6,7-diol] | 
7.62 | CNC1=N[C@@H]2[C@@H](O)[C@H](O)[C@@H](CCN)O[C@@H]2S1 [Example 40, (3aR,5R,6S,7R,7aR)-5-(2-aminoethyl)-2-(methylamino)-5,6,7,7a-tetrahydro-3aH-pyrano[3,2-d]thiazole-6,7-diol] | 
8.08 | CNCC[C@H]1O[C@@H]2SC(NC)=N[C@@H]2[C@@H](O)[C@@H]1O [Example 41, (3aR,5R,6S,7R,7aR)-2-(methylamino)-5-(2-(methylamino)ethyl)-5,6,7,7a-tetrahydro-3aH-pyrano[3,2-d]thiazole-6,7-diol] | 
6.01 | CNC1=N[C@@H]2[C@@H](O)[C@H](O)[C@@H](C(=O)NC3CC3)O[C@@H]2S1 [Example 42, (3aR,5S,6S,7R,7aR)-N-cyclopropyl-6,7-dihydroxy-2-(methylamino)-5,6,7,7a-tetrahydro-3aH-pyrano[3,2-d]thiazole-5-carboxamide] | 
6.23 | CNC1=N[C@@H]2[C@@H](O)[C@H](O)[C@@H](C(=O)NC(C)C)O[C@@H]2S1 [Example 43, (3aR,5S,6S,7R,7aR)-6,7-dihydroxy-N-isopropyl-2-(methylamino)-5,6,7,7a-tetrahydro-3aH-pyrano[3,2-d]thiazole-5-carboxamide] | 
5.84 | CCNC(=O)[C@H]1O[C@@H]2SC(NC)=N[C@@H]2[C@@H](O)[C@@H]1O [Example 44, (3aR,5S,6S,7R,7aR)-N-ethy1-6,7-dihydroxy-2-(methylamino)-5,6,7,7a-tetrahydro-3aH-pyrano[3,2-d]thiazole-5-carboxamide] | 
5.60 | CCN(CC)C(=O)[C@H]1O[C@@H]2SC(NC)=N[C@@H]2[C@@H](O)[C@@H]1O [Example 45, (3aR,5S,6S,7R,7aR)-N,N-diethyl-6,7-dihydroxy-2-(methylamino)-5,6,7,7a-tetrahydro-3aH-pyrano[3,2-d]thiazole-5-carboxamide] | 
5.71 | CCNC1=N[C@@H]2[C@@H](O)[C@H](O)[C@@H](C(=O)NC3CC3)O[C@@H]2S1 [Example 46, (3aR,5S,6S,7R,7aR)-N-cyclopropyl-2-(ethylamino)-6,7-dihydroxy-5,6,7,7a-tetrahydro-3aH-pyrano[3,2-d]thiazole-5-carboxamide] | 
 | CCNC1=N[C@@H]2[C@@H](O)[C@H](O)[C@@H](C(=O)N(C)OC)O[C@@H]2S1 [Example 47, (3aR,5S,6S,7R,7aR)-2-(ethylamino)-6,7-dihydroxy-N-methoxy-N-methyl-5,6,7,7a-tetrahydro-3aH-pyrano[3,2-d]thiazole-5-carboxamide] | 5.48
6.43 | CCNC1=N[C@@H]2[C@@H](O)[C@H](O)[C@@H](C(=O)NC)O[C@@H]2S1 [Example 48, (3aR,5S,6S,7R,7aR)-2-(ethylamino)-6,7-dihydroxy-N-methyl-5,6,7,7a-tetrahydro-3aH-pyrano[3,2-d]thiazole-5-carboxamide] | 
6.85 | CCNC1=N[C@@H]2[C@@H](O)[C@H](O)[C@@H](C(=O)NC(C)C)O[C@@H]2S1 [Example 49, (3aR,5S,6S,7R,7aR)-2-(ethylamino)-6,7-dihydroxy-N-isopropyl-5,6,7,7a-tetrahydro-3aH-pyrano[3,2-d]thiazole-5-carboxamide] | 
5.54 | CCNC(=O)[C@H]1O[C@@H]2SC(NCC)=N[C@@H]2[C@@H](O)[C@@H]1O [Example 50, (3aR,5S,6S,7R,7aR)-N-ethyl-2-(ethylamino)-6,7-dihydroxy-5,6,7,7a-tetrahydro-3aH-pyrano[3,2-d]thiazole-5-carboxamide] | 
 | CCNC1=N[C@@H]2[C@@H](O)[C@H](O)[C@@H](C(=O)N(C)C)O[C@@H]2S1 [Example 51, (3aR,5S,6S,7R,7aR)-2-(ethylamino)-6,7-dihydroxy-N,N-dimethyl-5,6,7,7a-tetrahydro-3aH-pyrano[3,2-d]thiazole-5-carboxamide] | 5.73
 | CCNC1=N[C@@H]2[C@@H](O)[C@H](O)[C@@H](C(=O)O)O[C@@H]2S1 [Example 52, (3aR,5S,6S,7R,7aR)-2-(ethylamino)-6,7-dihydroxy-5,6,7,7a-tetrahydro-3aH-pyrano[3,2-d]thiazole-5-carboxylic acid] | 7.57
 | CCNC1=N[C@@H]2[C@@H](O)[C@H](O)[C@@H](C(=O)OC)O[C@@H]2S1 [Example 53, (3aR,5S,6S,7R,7aR)-N-ethyl-6,7-clihydroxy-5-(methoxycarbonyl)-5,6,7,7a-tetrahydro-3aH-pyrano[3,2-d]thiazol-2-aminium chloride] | 6.32
